Molecules are shown by their SMILES.

A short description of data set [1]: Particle size distribution of recrystallised fluticasone propionate by laser diffraction (Malvern Mastersizer 2000). It counts as physicochemical. The note with it: for D[v, 0.1]: 10th percentile volume diameter; for D[v, 0.1] / D[v, 0.5] / D[v, 0.9]: recrystallised batch, before micronisation; for D[v, 0.5]: 50th percentile (median) volume diameter; for D[v, 0.9]: 90th percentile volume diameter; for Ingoing particle size D[v, 0.5]: before micronisation (Table 3). Here is the method:
The particle size distribution was measured on the Malvern Mastersizer 2000 laser diffraction system equipped with a Hydro 2000S liquid dispersion unit and flow cell. The sample was prepared by adding 15 drops of Tween 80 to crystallised fluticasone propionate within the glass 4 dram vial and mixing into a paste using a spatula, until all of the powder is wetted out and a smooth, uniform paste is achieved. Then the paste is added to the Hydro 2000S containing dispersant (0.1% Tween 80 in deionised water) using a spatula. When the obscuration target is achieved (20%±5%) the sample is left to stir within the Hydro 2000S for 1 minute to allow the particles to wet out, disperse and ensure a stable obscuration is achieved. Measurement is initiated after 1 minute of stirring.
The particle size data expressed as D[v, 0.1], D[v, 0.5] and D[v, 0.9] obtained from examples 2-9 are summarized below in Table 2. D[v, 0.1], D[v, 0.5] and D[v, 0.9] represent the 10th percentile volume diameter; 50th percentile volume diameter; and 90th percentile volume diameter respectively. In general the n^th percentile volume diameter is defined so that n % of the particles have a volume equivalent particle diameter smaller than or equal to the n^th percentile diameter. In the case of D[v, 0.5], it coincides with the median value.

A short description of data set [2]: Particle size distribution of micronised fluticasone propionate by laser diffraction (Sympatec HELOS). It counts as physicochemical. The note with it: after jet milling, JetPharma MC150, feed 15 g/min, mill pressure 3.5 bar, venturi 5.5 bar. Here is the method: The particle size distribution was measured on the Sympatec HELOS laser diffraction system (with R1 optical module giving a measuring range of 0.1/0.18-35 μm) together with SUCELL dispersing module. 100 mg of micronised sample is weighed into a 4-dram vial and 15 drops (approximately 0.5 mL) of Tween 80 is added from a 3 ml wide-tipped pipette to the powder. The mixture is then carefully stirred into a paste until all the particles are wetted out and a uniform smooth mixture is achieved. Then the paste is added to the SUCELL containing dispersant (0.025% Tween 80 in deionised water) using a spatula. Once the optical concentration target is achieved (10-15%) then a measurement is taken.
Particles were micronized using a JetPharma MC150 (6 inch spiral jet mill) using the following conditions: • Feed rate: 15 g/min • Mill pressure: 3.5 bar • Venturi Pressure: 5.5 bar • Micronisation scale: 0.5 Kg.

On to `CCC(=O)O[C@]1(C(=O)SCF)[C@H](C)C[C@H]2[C@@H]3C[C@H](F)C4=CC(=O)C=C[C@]4(C)[C@@]3(F)[C@@H](O)C[C@@]21C` [Example 5, S-(fluoromethyl)-6α,9-difluoro-11β-17-dihydroxy-16α-methyl-3-oxoandrosta-1,4-diene-17β-carbothioate, 17-propionate], for which, in data set [1], the “D[v, 0.1]” value was determined as 2.1 μm; the “D[v, 0.5]” value came to 5.9 μm; the “D[v, 0.9]” value is 15.2 μm.

Regarding `CCC(=O)O[C@]1(C(=O)SCF)[C@H](C)C[C@H]2[C@@H]3C[C@H](F)C4=CC(=O)C=C[C@]4(C)[C@@]3(F)[C@@H](O)C[C@@]21C` [Example 2, S-(fluoromethyl)-6α,9-difluoro-11β-17-dihydroxy-16α-methyl-3-oxoandrosta-1,4-diene-17β-carbothioate, 17-propionate], in data set [1], the “D[v, 0.1]” value came out at 2.5 μm; the “D[v, 0.5]” value was 6.7 μm; the “D[v, 0.9]” value is recorded as 15.7 μm.

On to `CCC(=O)O[C@]1(C(=O)SCF)[C@H](C)C[C@H]2[C@@H]3C[C@H](F)C4=CC(=O)C=C[C@]4(C)[C@@]3(F)[C@@H](O)C[C@@]21C` [Example 4, S-(fluoromethyl)-6α,9-difluoro-11β-17-dihydroxy-16α-methyl-3-oxoandrosta-1,4-diene-17β-carbothioate, 17-propionate], for which, in data set [1], the “D[v, 0.1]” value stood at 15.4 μm; the “D[v, 0.5]” value turned out to be 55.1 μm; the “D[v, 0.9]” value turned out to be 135.9 μm.

Consider `CCC(=O)O[C@]1(C(=O)SCF)[C@H](C)C[C@H]2[C@@H]3C[C@H](F)C4=CC(=O)C=C[C@]4(C)[C@@]3(F)[C@@H](O)C[C@@]21C` [Example 3, S-(fluoromethyl)-6α,9-difluoro-11β-17-dihydroxy-16α-methyl-3-oxoandrosta-1,4-diene-17β-carbothioate, 17-propionate], for which, in data set [1], the “D[v, 0.1]” value is 2.1 μm; the “D[v, 0.5]” value is recorded as 5.1 μm; the “D[v, 0.9]” value worked out at 11.357 μm.

As for `CCC(=O)O[C@]1(C(=O)SCF)[C@H](C)C[C@H]2[C@@H]3C[C@H](F)C4=CC(=O)C=C[C@]4(C)[C@@]3(F)[C@@H](O)C[C@@]21C` [Example 7, S-(fluoromethyl)-6α,9-difluoro-11β-17-dihydroxy-16α-25 methyl-3-oxoandrosta-1,4-diene-17β-carbothioate, 17-propionate], in data set [1], the “D[v, 0.1]” value is listed as 3.4 μm; the “D[v, 0.5]” value was found to be 11.4 μm; the “D[v, 0.9]” value was 32.1 μm.

Regarding `CCC(=O)O[C@]1(C(=O)SCF)[C@H](C)C[C@H]2[C@@H]3C[C@H](F)C4=CC(=O)C=C[C@]4(C)[C@@]3(F)[C@@H](O)C[C@@]21C` [Example 8, S-(fluoromethyl)-6α,9-difluoro-11β-17-dihydroxy-16α-methyl-3-oxoandrosta-1,4-diene-17β-carbothioate, 17-propionate], in data set [1], the “D[v, 0.1]” value was found to be 1.3 μm; the “D[v, 0.5]” value is on record as 2.8 μm; the “D[v, 0.9]” value came out at 5.6 μm; the “Ingoing particle size D[v, 0.5]” value is on record as 2.8 μm. Also, in data set [2], the “Post-micronisation particle size D[v, 0.5]” value amounted to 2.3 μm.

For `CCC(=O)O[C@]1(C(=O)SCF)[C@H](C)C[C@H]2[C@@H]3C[C@H](F)C4=CC(=O)C=C[C@]4(C)[C@@]3(F)[C@@H](O)C[C@@]21C` [Example 9, S-(fluoromethyl)-6α,9-difluoro-11β-17-dihydroxy-16α-methyl-3-oxoandrosta-1,4-diene-17β-carbothioate, 17-propionate], in data set [1], the “D[v, 0.1]” value was determined as 6.2 μm; the “D[v, 0.5]” value came to 22.5 μm; the “D[v, 0.9]” value is listed as 53.4 μm; the “Ingoing particle size D[v, 0.5]” value is on record as 22.5 μm. In addition, the “Post-micronisation particle size D[v, 0.5]” value in data set [2] was determined as 4.0 μm.

Consider `CCC(=O)O[C@]1(C(=O)SCF)[C@H](C)C[C@H]2[C@@H]3C[C@H](F)C4=CC(=O)C=C[C@]4(C)[C@@]3(F)[C@@H](O)C[C@@]21C` [Example 6, S-(fluoromethyl)-6α,9-difluoro-11β-17-dihydroxy-16α-methyl-3-oxoandrosta-1,4-diene-17β-carbothioate, 17-propionate], for which, in data set [1], the “D[v, 0.1]” value worked out at 2.0 μm; the “D[v, 0.5]” value stood at 5.3 μm; the “D[v, 0.9]” value stood at 12.4 μm.

(Values after US10370402B2, “Process for the preparation of fluticasone propionate form 1” (Pfizer Limited, priority 2011, dated 2019).)
